Results on 16 molecules are retold here after PubChem BioAssay (NCI).

Test in all cases: NCI anticancer screen, dose series, 48 h
Test [1] has as its system HT29 colon.
The subject of test [2] is UO-31 renal.
Test [3] has as its system A549 NSCLC.
For test [4], the system named is UACC-257 melanoma.
Test [5] deals with OVCAR-4 ovarian.
In test [6] the test system is SNB-19 CNS.
Test [7] has as its system T-47D breast.
Test [8] has as its system NCI-H226 lung.
For test [9], the system named is M14 melanoma.
Test [10] deals with SNB-75 CNS.

The structures appear in SMILES notation.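 Exposure lasted 48 hours, with cells grown in 96-well plates and compounds tested at five concentrations. GI50: concentration for 50% inhibition of growth. The concentration for full growth arrest is given as TGI.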

In the case of `COc1ccccc1C(=O)N(C)c1ccc(Cl)c(C(=O)OC(C)C)c1`, the TGI in test [1], in test [2], in [3], in test [4], in [5] and in test [6] was > 100 µM throughout. The TGI in test [7] is 85.7 µM; in test [8] it was > 100 µM; in [9] it was > 100 µM; in test [10] it was > 100 µM.

As for `Nc1ncc(-c2cccc(S(N)(=O)=O)c2)c2scc(-c3ccc(F)c(Cl)c3)c12`, the GI50 in [1] is 5 µM; in test [2] it was 2.22 µM; in test [3], 6.76 µM; in [4], 6.46 µM; in test [5], 6.65 µM; in test [6], 10.6 µM. Also, the GI50 was 3.59 µM in test [7], 5.71 µM in [8], 7.54 µM in [9] and 6.11 µM in test [10]. Moreover, the TGI in test [1] was 15.3 µM; in test [2] it was 21 µM; in [3] it was > 25 µM; in test [4], 17.2 µM; in test [5], > 23.7 µM; in [6], > 25 µM. The TGI is 11 µM in [7], 15.1 µM in test [8], 16.8 µM in [9] and > 23 µM in test [10].

For the molecule `O=C1C(Cl)=C(Nc2cccc(C(F)(F)F)c2)C(=O)N1Cc1ccc(Cl)cc1`, the GI50 in test [1] was 0.595 µM; in [2], 1.11 µM; in test [3], 1.13 µM; in test [4], 6.59 µM; in test [5], 5.32 µM; in test [6] it was 6.37 µM. Also, the GI50 was 2.11 µM in test [7], < 0.0129 µM in [8], 1.34 µM in test [9] and 1.07 µM in [10]. In addition, the TGI in test [1] was 24.9 µM; in test [2], 33.8 µM; in test [3], 16.9 µM; in test [4], 22.2 µM; in [5], > 50.9 µM; in test [6], 24.1 µM. For the same molecule, the TGI was 30.8 µM in [7], 18.5 µM in test [9] and 20 µM in test [10].

Regarding `COc1cc(NC(=O)C2=C(N3CCOCC3)/C(=C/c3ccc(Cl)cc3)CC2)cc(OC)c1OC`, the GI50 was > 100 µM in test [1]; 20.8 µM in [2]; 55.9 µM in test [3]; > 100 µM in test [4]; 4.27 µM in test [5]; 28.8 µM in test [6]. Further, the GI50 in test [7] was > 100 µM; in [8], 34.3 µM; in test [9], > 100 µM; in [10], 6.24 µM. For the same molecule, the TGI in [1] is > 100 µM; in [2], > 100 µM; in test [3], > 100 µM; in [4] it was > 100 µM; in [5] it was > 100 µM; in test [6], 95.1 µM. The TGI in [7] was > 100 µM; in test [8], > 100 µM; in test [9], > 100 µM; in [10] it was 33.9 µM.

Regarding `Cc1ccc(Sc2cc3c(oc2=O)-c2ccccc2OC3O)cc1` (stereo not drawn), the GI50 in test [1] is 30.9 µM; in [2], 21.7 µM; in test [3], 28.5 µM; in test [4] it was 22.3 µM; in [5], 33.1 µM; in test [6], 25 µM. Further, the GI50 in test [7] is 24.8 µM; in test [8], 30 µM; in test [9], 22.4 µM; in test [10], 30.5 µM. Moreover, the TGI is > 100 µM in test [1]; 50.4 µM in test [2]; 74.8 µM in [3]; 43.8 µM in [4]; > 100 µM in test [5]; 62.1 µM in [6]. Moreover, the TGI in test [7] was determined as 81.2 µM; in [8], 75 µM; in test [9] it was 43.5 µM; in [10], 81.2 µM.

Consider `CC(C)=CCCC(C)C1=C(O)C(=O)C(C)=CC1=O` (stereo not drawn), for which the TGI in test [1] is > 64 µM; in test [2], 21.3 µM; in test [3], > 100 µM; in test [4], 26.1 µM; in [5] it was 17.4 µM; in test [6], > 62.4 µM. Also, the TGI in [7] is 3.92 µM; in [8], 47.5 µM; in test [9] it was 36 µM; in [10], 37.6 µM.

Take `Cc1c([N+](=O)[O-])oc2ccc3ccccc3c12`: the TGI in [1], in test [2], in test [3], in test [4], in test [5] and in test [6] was > 100 µM throughout. For the same molecule, the TGI in test [7], in test [8], in test [9] and in [10] was > 100 µM in each case.

Regarding `O=C(c1ccccc1)c1c(C(F)(F)F)n([O-])c2ccc(C(F)(F)F)cc2[n+]1=O`, the GI50 in test [1] is 0.177 µM; in test [2], 0.173 µM; in test [3], 0.14 µM; in [4] it was 0.295 µM; in [5], 0.156 µM; in [6], 0.83 µM. Besides, the GI50 in test [7] is 0.372 µM; in test [8], 0.524 µM; in [9], 0.619 µM; in test [10], 0.52 µM. In addition, the TGI turned out to be 0.349 µM in test [1]; 0.322 µM in test [2]; 0.278 µM in [3]; 0.968 µM in test [4]; 0.36 µM in test [5]; 2.1 µM in [6]. Besides, the TGI in test [7] amounted to 1.08 µM; in test [8], 1.2 µM; in [9], 1.47 µM; in test [10], 1.13 µM.

With `COc1ccc(Cn2cc3c(c2-c2cc(OC)c(OC)c(OC)c2)CCc2cnoc2-3)cc1`, the GI50 in [1] is 0.335 µM; in test [2], 0.542 µM; in [3], 0.372 µM; in test [5], 0.768 µM; in test [6], 0.502 µM; in test [7] it was 0.82 µM. The GI50 is 1.58 µM in test [8], 0.216 µM in test [9] and 0.147 µM in [10]. Also, the TGI in [1] is 10.3 µM; in [2] it was > 100 µM; in test [3], > 100 µM; in test [4], > 100 µM; in test [5] it was > 100 µM; in [6], > 100 µM. Also, the TGI in [7] was > 100 µM; in [8] it was > 100 µM; in [9], 0.87 µM; in test [10], 0.746 µM.

`Cc1cc(I)cc(CN(C)CCCN2CCN(C)CC2)c1O`: the GI50 in test [1] is 13.7 µM; in test [2], 37.5 µM; in test [3], 36 µM; in [4], 35 µM; in test [5], > 73.1 µM; in test [6] it was > 100 µM. Besides, the GI50 is 28.7 µM in test [7], 56.9 µM in [8], 4.67 µM in test [9] and 31.5 µM in [10]. The TGI in test [1] is 41.2 µM; in test [2], > 100 µM; in test [3], > 100 µM; in test [4], > 57.5 µM; in test [5], > 100 µM; in test [6], > 100 µM. Further, the TGI in test [7] is 91.1 µM; in test [8], > 100 µM; in test [9], 23.9 µM; in test [10] it was > 100 µM.

As to `Cc1cc(Nc2cc(N)ncn2)c(=O)n2c1C(=O)NC21CCCCC1`, the GI50 in test [1] is > 100 µM; in test [2], 51.8 µM; in [3], > 100 µM; in test [4], > 100 µM; in test [5], > 100 µM; in [6] it was > 100 µM. In addition, the GI50 in test [7] was > 100 µM; in test [8] it was > 100 µM; in test [9], > 100 µM; in [10] it was 9.32 µM. The TGI in test [1], in test [2], in test [3], in test [4], in test [5] and in [6] was > 100 µM throughout. For the same molecule, the TGI in test [7], in test [8], in test [9] and in [10] was > 100 µM throughout.

On to `CC(O)c1cc(C(=O)N[C@@H](C)Cn2ccc(-c3ccc(C#N)c(Cl)c3)n2)n[nH]1` (stereo partly drawn), for which the GI50 is > 100 µM in test [1]; 35.1 µM in test [2]; 85.4 µM in [3]; 27.5 µM in test [4]; 16.3 µM in [5]; > 100 µM in test [6]. Besides, the GI50 in [7] was 13.2 µM; in test [8], 58.5 µM; in test [9] it was 32.8 µM; in [10], 52.4 µM. The TGI in test [1], in [2], in test [3], in test [4], in [5] and in [6] was > 100 µM each time. The TGI was 87.8 µM in test [7], > 100 µM in [8], > 100 µM in test [9] and > 100 µM in test [10].

Consider `COC(=O)C(C)NC(=O)c1ccccc1I(OS(=O)(=O)C(F)(F)F)c1ccccc1` (stereo not drawn), for which the GI50 is 23.1 µM in test [1]; 21.3 µM in test [2]; 30.6 µM in test [3]; 42.6 µM in [4]; 19.1 µM in test [5]; 26.3 µM in test [6]. The GI50 in [7] is 36.3 µM; in test [8] it was 17.1 µM; in [9], 1.23 µM; in test [10], > 49 µM. Also, the TGI in test [1] was > 61.4 µM; in test [2], 42.1 µM; in test [3], > 75.2 µM; in test [4] it was > 100 µM; in test [5], 50.9 µM; in [6], > 65.4 µM. Moreover, the TGI is > 100 µM in test [7], 36 µM in test [8], 32.8 µM in test [9] and > 87.8 µM in test [10].

For the molecule `CN(C)CCCn1c(-c2nonc2N)nc2cnccc21`, the GI50 in test [1] was > 25 µM; in test [2], > 11.2 µM; in test [3] it was > 25 µM; in [4] it was > 25 µM; in [5], > 25 µM; in test [6], > 25 µM. The GI50 was > 25 µM in test [7], > 4.99 µM in test [8], > 25 µM in [9] and 8.06 µM in [10]. In addition, the TGI in test [1], in test [2], in test [3], in test [4], in [5] and in test [6] was > 25 µM each time. Also, the TGI in test [7], in test [8], in [9] and in test [10] was > 25 µM throughout.

In the case of `C=CC(COC(c1ccccc1)(c1ccccc1)c1ccccc1)N(CC)CC` (stereo not drawn), the GI50 is 1.93 µM in [1]; 3.54 µM in test [2]; 5.16 µM in test [3]; 2.27 µM in test [4]; 4.74 µM in test [5]; 10.1 µM in [6]. In addition, the GI50 in [7] is 4.6 µM; in test [8] it was 11.9 µM; in test [9], 2.53 µM; in test [10], 10.3 µM. For the same molecule, the TGI is 7.05 µM in test [1]; 16.4 µM in test [2]; 18.4 µM in test [3]; 6.32 µM in test [4]; 17.5 µM in test [5]; 25.3 µM in test [6]. The TGI is 19.8 µM in [7], 30.9 µM in test [8], 6.19 µM in [9] and 22.5 µM in test [10].

In the case of `CCN(Cc1c(Cl)cccc1Cl)c1ccc(CO)c(Cl)c1`, the GI50 in test [1] is 2.43 µM; in test [2], 12.6 µM; in test [3], 3.35 µM; in test [4], < 0.0392 µM; in test [5], 0.194 µM; in test [6], 13.2 µM. Also, the GI50 is < 0.017 µM in [7], 0.0224 µM in test [8], 15.5 µM in test [9] and 11 µM in test [10]. The TGI in test [1] amounted to 15.3 µM; in [2], 26.2 µM; in [3] it was 20.6 µM; in [4], 0.211 µM; in [5], 8.24 µM; in [6] it was 26.2 µM. Moreover, the TGI in test [7] turned out to be 0.18 µM; in [8], 0.071 µM; in [9], 30.9 µM; in test [10] it was 25.3 µM.
